Measurements taken from the NIST ThermoML archive (doi:10.1016/j.jct.2007.11.010).
± gives the expanded uncertainty stated by the source.

Assay: xn = mol fraction of the nth substance listed
Conditions: 101 kPa, Liquid

OCCN1CCOCC1 [4-morpholineethanol] + CCO
mass density [kg/m3]
Conditions | 293.15 K | 298.15 K | 303.15 K | 313.15 K | 323.15 K
x1 = 0.0543 | 820.46 ± 0.85 | 817.03 ± 0.86 | 812.82 ± 0.87 | 804.96 ± 0.89 | 794.75 ± 0.93
x1 = 0.1127 | 851.58 ± 0.76 | 847.96 ± 0.77 | 843.64 ± 0.78 | 835.77 ± 0.81 | 824.13 ± 0.84
x1 = 0.1873 | 886.91 ± 0.66 | 883.05 ± 0.67 | 878.64 ± 0.69 | 870.75 ± 0.71 | 857.23 ± 0.75
x1 = 0.2468 | 911.75 ± 0.6 | 907.72 ± 0.61 | 903.24 ± 0.62 | 895.37 ± 0.64 | 880.63 ± 0.69
x1 = 0.2874 | 927.58 ± 0.56 | 923.45 ± 0.57 | 918.93 ± 0.58 | 911.07 ± 0.6 | –
x1 = 0.3248 | 941.14 ± 0.52 | 936.91 ± 0.53 | 932.36 ± 0.55 | 924.52 ± 0.57 | –
x1 = 0.3873 | 961.89 ± 0.47 | 957.52 ± 0.48 | 952.92 ± 0.5 | 945.11 ± 0.52 | 927.56 ± 0.57
x1 = 0.4267 | 973.69 ± 0.44 | 969.23 ± 0.46 | 964.6 ± 0.5 | 956.83 ± 0.49 | 938.98 ± 0.54
x1 = 0.4882 | 990.98 ± 0.41 | 986.4 ± 0.4 | 981.73 ± 0.43 | 974 ± 1 | 955.56 ± 0.5
x1 = 0.5237 | 1000.12 ± 0.38 | 995.47 ± 0.39 | 990.79 ± 0.41 | 983.09 ± 0.43 | 964.48 ± 0.48
x1 = 0.5894 | 1015.56 ± 0.44 | 1010.8 ± 0.4 | 1006.1 ± 0.4 | 998.46 ± 0.39 | –
x1 = 0.6422 | 1026.73 ± 0.48 | 1021.89 ± 0.46 | 1017.17 ± 0.45 | 1009.59 ± 0.42 | –
x1 = 0.6899 | 1035.93 ± 0.51 | 1031.02 ± 0.5 | 1026.29 ± 0.48 | 1018.76 ± 0.46 | 1001.11 ± 0.4
x1 = 0.7439 | 1045.49 ± 0.56 | 1040.52 ± 0.54 | 1035.78 ± 0.52 | 1028.31 ± 0.5 | 1011.45 ± 0.44
x1 = 0.7855 | 1051.94 ± 0.59 | 1046.91 ± 0.57 | 1042.18 ± 0.55 | 1034.76 ± 0.53 | 1018.98 ± 0.47
x1 = 0.8238 | 1057.63 ± 0.61 | 1052.57 ± 0.59 | 1047.83 ± 0.58 | 1040.46 ± 0.55 | 1025.59 ± 0.5
x1 = 0.8841 | 1065.21 ± 0.65 | 1060.1 ± 0.6 | 1055.37 ± 0.62 | 1048.08 ± 0.59 | 1035.44 ± 0.55
x1 = 0.9247 | 1069.51 ± 0.67 | 1064.37 ± 0.66 | 1059.65 ± 0.64 | 1052.42 ± 0.61 | 1041.71 ± 0.58
x1 = 0.9544 | 1072.49 ± 0.69 | 1067.33 ± 0.67 | 1062.62 ± 0.66 | 1055.43 ± 0.63 | 1046.13 ± 0.6
x1 = 0.9844 | 1075.58 ± 0.71 | 1070.4 ± 0.7 | 1065.69 ± 0.67 | 1058.55 ± 0.65 | 1050.45 ± 0.62

OCCN1CCOCC1 [4-morpholineethanol] + CCCO
mass density [kg/m3]
Conditions | 293.15 K | 298.15 K | 303.15 K | 313.15 K | 323.15 K
x1 = 0.0441 | 830.17 ± 0.82 | 823.23 ± 0.84 | 815.35 ± 0.86 | 807.23 ± 0.89 | 799.06 ± 0.91
x1 = 0.1025 | 854.6 ± 0.7 | 847.85 ± 0.77 | 839.76 ± 0.79 | 831.61 ± 0.82 | 823.54 ± 0.84
x1 = 0.1771 | 883.51 ± 0.67 | 877.01 ± 0.69 | 868.66 ± 0.71 | 860.49 ± 0.74 | 852.56 ± 0.76
x1 = 0.2366 | 905.01 ± 0.61 | 898.71 ± 0.63 | 890.18 ± 0.66 | 882 ± 1 | 874.19 ± 0.7
x1 = 0.2772 | 919.15 ± 0.58 | 912.99 ± 0.6 | 904.34 ± 0.62 | 896.16 ± 0.64 | 888.43 ± 0.67
x1 = 0.3146 | 931.56 ± 0.55 | 925.53 ± 0.56 | 916.77 ± 0.59 | 908.59 ± 0.61 | 900.94 ± 0.64
x1 = 0.3771 | 951.28 ± 0.5 | 945.46 ± 0.52 | 936.54 ± 0.54 | 928.37 ± 0.56 | 920.85 ± 0.59
x1 = 0.4165 | 962.97 ± 0.47 | 957.29 ± 0.49 | 948.27 ± 0.51 | 940.11 ± 0.54 | 932.69 ± 0.56
x1 = 0.478 | 980.28 ± 0.43 | 974.81 ± 0.45 | 965.64 ± 0.48 | 957.51 ± 0.5 | 950.23 ± 0.52
x1 = 0.5135 | 989.72 ± 0.41 | 984.38 ± 0.43 | 975.14 ± 0.45 | 967.02 ± 0.47 | 959.82 ± 0.49
x1 = 0.5792 | 1006.06 ± 0.4 | 1000.96 ± 0.39 | 991.58 ± 0.41 | 983.5 ± 0.4 | 976.47 ± 0.45
x1 = 0.632 | 1018.06 ± 0.45 | 1013.14 ± 0.43 | 1003.67 ± 0.4 | 995.64 ± 0.4 | 988.74 ± 0.42
x1 = 0.6797 | 1028.12 ± 0.49 | 1023.38 ± 0.47 | 1013.83 ± 0.44 | 1005.84 ± 0.41 | 999.07 ± 0.4
x1 = 0.7337 | 1038.68 ± 0.53 | 1034.12 ± 0.52 | 1024.5 ± 0.5 | 1016.57 ± 0.46 | 1009.94 ± 0.43
x1 = 0.7753 | 1046.19 ± 0.56 | 1041.78 ± 0.55 | 1032.12 ± 0.52 | 1024.22 ± 0.49 | 1017.71 ± 0.47
x1 = 0.8136 | 1052.76 ± 0.59 | 1048.48 ± 0.58 | 1038.78 ± 0.55 | 1030.93 ± 0.52 | 1024.51 ± 0.5
x1 = 0.8739 | 1062.19 ± 0.64 | 1058.11 ± 0.62 | 1048.36 ± 0.59 | 1040.58 ± 0.56 | 1034.34 ± 0.54
x1 = 0.9145 | 1067.81 ± 0.67 | 1063.88 ± 0.65 | 1054.1 ± 0.6 | 1046.38 ± 0.59 | 1040.25 ± 0.57
x1 = 0.9442 | 1071.98 ± 0.69 | 1068.14 ± 0.67 | 1058.34 ± 0.64 | 1050.66 ± 0.61 | 1044.61 ± 0.59
x1 = 0.9742 | 1076.35 ± 0.71 | 1072.61 ± 0.7 | 1062.79 ± 0.66 | 1055.14 ± 0.63 | 1049.16 ± 0.61
